Measurements taken from the CheMixHub viscosity set.

Experiment: xn = mol fraction of the nth substance listed
Details: 101 kPa

CC1=CCC(=C(C)C)CC1 + Clc1ccccc1
viscosity [mPa·s]
Details | x1 = 0.0668 | x1 = 0.1386 | x1 = 0.2162 | x1 = 0.3003 | x1 = 0.3917 | x1 = 0.4913 | x1 = 0.6004 | x1 = 0.7203 | x1 = 0.8528
303.15 K | 0.729 | 0.761 | 0.798 | 0.836 | 0.874 | 0.908 | 0.934 | 0.955 | 0.974
308.15 K | 0.692 | 0.722 | 0.756 | 0.791 | 0.826 | 0.858 | 0.881 | 0.897 | 0.913
313.15 K | 0.649 | 0.677 | 0.709 | 0.743 | 0.775 | 0.804 | 0.825 | 0.839 | 0.853

Clc1ccccc1 + CCCCCCCCCC
viscosity [mPa·s]
Details | x1 = 0.1146 | x1 = 0.1985 | x1 = 0.31 | x1 = 0.3792 | x1 = 0.4894 | x1 = 0.6146 | x1 = 0.6949 | x1 = 0.8073 | x1 = 0.9173
308.15 K | 0.7161 | 0.703 | 0.6849 | 0.6723 | 0.6588 | 0.6526 | 0.6521 | 0.6598 | 0.6691
313.15 K | 0.6733 | 0.6572 | 0.6458 | 0.6387 | 0.6287 | 0.624 | 0.6222 | 0.6228 | 0.6302

Clc1ccccc1 + Cc1ccc(C)cc1
Details | viscosity [mPa·s]
293.15 K, x1 = 0.1144 | 0.598
293.15 K, x1 = 0.2316 | 0.621
293.15 K, x1 = 0.337 | 0.641
293.15 K, x1 = 0.4432 | 0.657
293.15 K, x1 = 0.5417 | 0.673
293.15 K, x1 = 0.6319 | 0.687
293.15 K, x1 = 0.7398 | 0.706
293.15 K, x1 = 0.8385 | 0.722
293.15 K, x1 = 0.9124 | 0.734
298.15 K, x1 = 0.1363 | 0.57
298.15 K, x1 = 0.2224 | 0.585
298.15 K, x1 = 0.3453 | 0.608
298.15 K, x1 = 0.4555 | 0.625
298.15 K, x1 = 0.5832 | 0.645
298.15 K, x1 = 0.6956 | 0.667
298.15 K, x1 = 0.7881 | 0.679
298.15 K, x1 = 0.9065 | 0.695
303.15 K, x1 = 0.1144 | 0.534
303.15 K, x1 = 0.2318 | 0.55
303.15 K, x1 = 0.3419 | 0.572
303.15 K, x1 = 0.4624 | 0.587
303.15 K, x1 = 0.5653 | 0.602
303.15 K, x1 = 0.6803 | 0.615
303.15 K, x1 = 0.7947 | 0.635
303.15 K, x1 = 0.9082 | 0.649

COC(C)(C)C + CCCCCCCC
viscosity [mPa·s]
Details | 293.15 K | 298.15 K | 303.15 K | 308.15 K
x1 = 0.0937 | 0.5238 | 0.5009 | 0.4686 | 0.4492
x1 = 0.1345 | – | – | 0.444 | –
x1 = 0.1875 | 0.5065 | 0.4844 | 0.454 | 0.4355
x1 = 0.2831 | – | – | 0.423 | –
x1 = 0.2942 | 0.4873 | 0.4666 | 0.4382 | 0.4201
x1 = 0.3682 | – | – | 0.417 | –
x1 = 0.412 | 0.4668 | 0.447 | 0.4207 | 0.4035
x1 = 0.4989 | – | – | 0.406 | –
x1 = 0.511 | 0.4502 | 0.4313 | 0.4067 | 0.3903
x1 = 0.5482 | – | – | 0.401 | –
x1 = 0.5952 | 0.4367 | 0.4189 | 0.3957 | 0.3793
x1 = 0.699 | 0.4201 | 0.4027 | 0.3811 | 0.3653
x1 = 0.791 | – | – | 0.388 | –
x1 = 0.7965 | 0.4039 | 0.3871 | – | 0.3518
x1 = 0.8407 | – | – | 0.381 | –
x1 = 0.9009 | 0.3867 | 0.3707 | 0.3523 | 0.3376
